Converted amounts (≈) assume the structure as drawn.
Tests used:
Assay type in all cases: cell-based
Candida albicans (CA) = assay: Preservation efficacy test (PET), European Pharmacopoeia 5.1.3
Description: (§1) The preservation efficacy test (PET) was performed in accordance with European Pharmacopoeia § 5.1.3: The test is a reference European Pharmacopoeia method, that is to be used to evaluate the preservation system of a cosmetic or pharmaceutical preparation. The test consists of challenging the preparation under test, with prescribed inoculums of suitable microorganisms. The preservation porperties of the preparation are adequate if, in the conditions of the test, there is a significant fall or no increase, as appropriate, in the number of microorganisms in the inoculated preparations after the time prescribed.
(§2) The test microorganisms which were used, are the following:
(§3) Pseudomonas aeruginosa (PA) (bacterium); Staphylococcus aureus (SA) (bacterium); Escherichia coli (EC) (bacterium); Candida albicans (CA) (yeast); and Aspergillus brasiliensis (AB) (fungus).

[1] = test system: Aspergillus brasiliensis (AB); assay: as above
Description: as §1, §2, §3

[2] = test system: Pseudomonas aeruginosa (PA); assay: as above
Description: as §1, §2, §3

[3] = test system: Staphylococcus aureus (SA); assay: as above
Description: as §1, §2, §3

Escherichia coli (EC) = assay: as above
Description: as §1, §2, §3

Escherichia coli = assay: MIC test (growth inhibition, 96 well plates, OD); details: read-out: Minimum Inhibitory Concentration (MIC)
Description: (§4) The MIC test is a test on growth inhibition. Estimation of Minimum Inhibitory Concentration (MIC) is executed in 96 well plates. Through the comparison of bacterial growth with positive and negative controls via optical density (OD), different concentrations of given test substances are evaluated.
(§5) Bacteria are cultivated under adjusted conditions based on information of the German Collection of Microorganisms and Cell Cultures (DSMZ) and stored in 50% Glycerol prior to use. Afterwards, the following method was applied: Adding growth medium (according to microorganism) to each well of the microplate. Adding the test-substances in different concentrations, positive controls (water controls only with medium) and negative controls (benchmarks according to organism). Adding the microorganism in a concentration of 10^6 CFU/ml (CFU=colony forming units). Incubation of the microplates at appropriate conditions.
(§6) According to resulting growth, substance concentrations are labelled either as inhibiting or not and MIC is defined as the lowest concentration where a complete growth inhibition is visible. Experiments at concentration limits (highest concentration labelled as growth and lowest concentration labelled as inhibiting) are performed at least twice.

Corynebacterium jeikeium = assay: MIC test (growth inhibition, 96 well plates, OD); details: read-out: Minimum Inhibitory Concentration (MIC)
Description: as §4, §5, §6

Propionibacterium acnes = assay: MIC test (growth inhibition, 96 well plates, OD); details: Cutibacterium acnes; read-out: Minimum Inhibitory Concentration (MIC)
Description: as §4, §5, §6

Staphylococcus aureus = assay: MIC test (growth inhibition, 96 well plates, OD); details: read-out: Minimum Inhibitory Concentration (MIC)
Description: as §4, §5, §6

Candida albicans = assay: MIC test (growth inhibition, 96 well plates, OD); details: read-out: Minimum Inhibitory Concentration (MIC)
Description: as §4, §5, §6

Staphylococcus hominis = assay: MIC test (growth inhibition, 96 well plates, OD); details: read-out: Minimum Inhibitory Concentration (MIC)
Description: as §4, §5, §6

## CCCCCC(O)CO (centres unmarked) [1,2-heptanediol]
Candida albicans (CA); 0.1% in shampoo
  number of microorganisms after 2 days: 220,000
  number of microorganisms after 7 days: 62,000
  number of microorganisms after 14 days: 8,100
  number of microorganisms after 28 days: 1
Candida albicans (CA); 0.2% in o/w emulsion
  number of microorganisms after 2 days: 1,300,000
  number of microorganisms after 7 days: 1,600,000
  number of microorganisms after 14 days: 1,200,000
  number of microorganisms after 28 days: 620,000
Candida albicans (CA); 0.4% in o/w emulsion
  number of microorganisms after 2 days: 71,000
  number of microorganisms after 7 days: 2,800
  number of microorganisms after 14 days: 1
  number of microorganisms after 28 days: 1
[1]; 0.1% in shampoo
  number of microorganisms after 2 days: 240,000
  number of microorganisms after 7 days: 220,000
  number of microorganisms after 14 days: 150,000
  number of microorganisms after 28 days: 19,000
[1]; 0.2% in o/w emulsion
  number of microorganisms after 2 days: 2,200,000
  number of microorganisms after 7 days: 2,000,000
  number of microorganisms after 14 days: 2,500,000
  number of microorganisms after 28 days: 2,100,000
[1]; 0.4% in o/w emulsion
  number of microorganisms after 2 days: 1,000,000
  number of microorganisms after 7 days: 180,000
  number of microorganisms after 14 days: 150,000
  number of microorganisms after 28 days: 1
[2]; 0.1% in shampoo
  number of microorganisms after 2 days: 2,500
  number of microorganisms after 7 days: 10
  number of microorganisms after 14 days: 1
  number of microorganisms after 28 days: 1
[2]; 0.2% in o/w emulsion
  number of microorganisms after 2 days: 1
  number of microorganisms after 7 days: 1
  number of microorganisms after 14 days: 1
  number of microorganisms after 28 days: 1
[2]; 0.4% in o/w emulsion
  number of microorganisms after 2 days: 1
  number of microorganisms after 7 days: 1
  number of microorganisms after 14 days: 1
  number of microorganisms after 28 days: 1
[3]; 0.1% in shampoo
  number of microorganisms after 2 days: 10
  number of microorganisms after 7 days: 10
  number of microorganisms after 14 days: 1
  number of microorganisms after 28 days: 1
[3]; 0.2% in o/w emulsion
  number of microorganisms after 2 days: 95,000
  number of microorganisms after 7 days: 1
  number of microorganisms after 14 days: 1
  number of microorganisms after 28 days: 1
[3]; 0.4% in o/w emulsion
  number of microorganisms after 2 days: 15,000
  number of microorganisms after 7 days: 2,600
  number of microorganisms after 14 days: 1
  number of microorganisms after 28 days: 1
Escherichia coli (EC); 0.1% in shampoo
  number of microorganisms after 2 days: 2,100,000
  number of microorganisms after 7 days: 1,400,000
  number of microorganisms after 14 days: 200,000
  number of microorganisms after 28 days: 1
Escherichia coli (EC); 0.2% in o/w emulsion
  number of microorganisms after 2 days: 38,000
  number of microorganisms after 7 days: 73
  number of microorganisms after 14 days: 1
  number of microorganisms after 28 days: 1
Escherichia coli (EC); 0.4% in o/w emulsion
  number of microorganisms after 2 days: 23,000
  number of microorganisms after 7 days: 4,100
  number of microorganisms after 14 days: 1
  number of microorganisms after 28 days: 1
Escherichia coli
  MIC: 5000 µg/mL (≈ 37.8 mM)
Corynebacterium jeikeium
  MIC: 7500 µg/mL (≈ 56.7 mM)
Propionibacterium acnes
  MIC: > 5000 µg/mL
Staphylococcus aureus
  MIC: 10000 µg/mL (≈ 75.6 mM)
Candida albicans
  MIC: 5000 µg/mL (≈ 37.8 mM)
Staphylococcus hominis
  MIC: 10000 µg/mL (≈ 75.6 mM)

## CCCCC(O)C(C)O (centres unmarked) [2,3-heptanediol]
Candida albicans (CA); 0.1% in shampoo
  number of microorganisms after 2 days: 110,000
  number of microorganisms after 7 days: 20,000
  number of microorganisms after 14 days: 100
  number of microorganisms after 28 days: 1
Candida albicans (CA); 0.2% in o/w emulsion
  number of microorganisms after 2 days: 1,900,000
  number of microorganisms after 7 days: 2,200,000
  number of microorganisms after 14 days: 2,100,000
  number of microorganisms after 28 days: 370,000
Candida albicans (CA); 0.4% in o/w emulsion
  number of microorganisms after 2 days: 640,000
  number of microorganisms after 7 days: 350,000
  number of microorganisms after 14 days: 130,000
  number of microorganisms after 28 days: 11,000
Candida albicans (CA); 0.4% in shampoo
  number of microorganisms after 2 days: 81
  number of microorganisms after 7 days: 1
  number of microorganisms after 14 days: 1
  number of microorganisms after 28 days: 1
[1]; 0.1% in shampoo
  number of microorganisms after 2 days: 1,600,000
  number of microorganisms after 7 days: 970,000
  number of microorganisms after 14 days: 110,000
  number of microorganisms after 28 days: 120,000
[1]; 0.2% in o/w emulsion
  number of microorganisms after 2 days: 1,600,000
  number of microorganisms after 7 days: 1,600,000
  number of microorganisms after 14 days: 3,000,000
  number of microorganisms after 28 days: 2,000,000
[1]; 0.4% in o/w emulsion
  number of microorganisms after 2 days: 790,000
  number of microorganisms after 7 days: 930,000
  number of microorganisms after 14 days: 500,000
  number of microorganisms after 28 days: 390,000
[1]; 0.4% in shampoo
  number of microorganisms after 2 days: 2,200,000
  number of microorganisms after 7 days: 350,000
  number of microorganisms after 14 days: 130,000
  number of microorganisms after 28 days: 140,000
[2]; 0.1% in shampoo
  number of microorganisms after 2 days: 230,000
  number of microorganisms after 7 days: 730,000
  number of microorganisms after 14 days: 3,500,000
  number of microorganisms after 28 days: 7,000,000
[2]; 0.2% in o/w emulsion
  number of microorganisms after 2 days: 1
  number of microorganisms after 7 days: 1
  number of microorganisms after 14 days: 1
  number of microorganisms after 28 days: 1
[2]; 0.4% in o/w emulsion
  number of microorganisms after 2 days: 1
  number of microorganisms after 7 days: 1
  number of microorganisms after 14 days: 1
  number of microorganisms after 28 days: 1
[2]; 0.4% in shampoo
  number of microorganisms after 2 days: 2,900
  number of microorganisms after 7 days: 1
  number of microorganisms after 14 days: 1
  number of microorganisms after 28 days: 1
[3]; 0.1% in shampoo
  number of microorganisms after 2 days: 27,000
  number of microorganisms after 7 days: 490
  number of microorganisms after 14 days: 1
  number of microorganisms after 28 days: 1
[3]; 0.2% in o/w emulsion
  number of microorganisms after 2 days: 1,300,000
  number of microorganisms after 7 days: 790,000
  number of microorganisms after 14 days: 55
  number of microorganisms after 28 days: 1
[3]; 0.4% in o/w emulsion
  number of microorganisms after 2 days: 1,000,000
  number of microorganisms after 7 days: 12,000
  number of microorganisms after 14 days: 1
  number of microorganisms after 28 days: 1
[3]; 0.4% in shampoo
  number of microorganisms after 2 days: 3,500
  number of microorganisms after 7 days: 1
  number of microorganisms after 14 days: 1
  number of microorganisms after 28 days: 1
Escherichia coli (EC); 0.1% in shampoo
  number of microorganisms after 2 days: 1,100,000
  number of microorganisms after 7 days: 1,500,000
  number of microorganisms after 14 days: 1,600,000
  number of microorganisms after 28 days: 1,400,000
Escherichia coli (EC); 0.2% in o/w emulsion
  number of microorganisms after 2 days: 170,000
  number of microorganisms after 7 days: 1,600
  number of microorganisms after 14 days: 82
  number of microorganisms after 28 days: 1
Escherichia coli (EC); 0.4% in o/w emulsion
  number of microorganisms after 2 days: 320,000
  number of microorganisms after 7 days: 2,400
  number of microorganisms after 14 days: 1
  number of microorganisms after 28 days: 1
Escherichia coli (EC); 0.4% in shampoo
  number of microorganisms after 2 days: 1,200,000
  number of microorganisms after 7 days: 100,000
  number of microorganisms after 14 days: 75,000
  number of microorganisms after 28 days: 380,000
Escherichia coli
  MIC: > 5000 µg/mL
Corynebacterium jeikeium
  MIC: > 5000 µg/mL
Propionibacterium acnes
  MIC: > 5000 µg/mL
Staphylococcus aureus
  MIC: 20000 µg/mL (≈ 151 mM)
Candida albicans
  MIC: > 5000 µg/mL
Staphylococcus hominis
  MIC: > 5000 µg/mL

Reference: patent US20230248626A1, “Compositions Comprising (Bio)-Alkanediols” (Symrise AG, priority 0001, published 2023)
